Laboratory results from article PMC9516332 (Frontiers in Oncology, 2022).
Where two headings read alike, the source gives them in different places.

How the values were obtained:
AP-1060 (ETV6-NTRK3) = assay: Cell viability assay; details: read-out: IC50 in cell proliferation assay
134 cancer cell lines = assay: Cell viability assay (ATPlite, 72 hours), IC50 on cancer cell line panel

CCc1nc(C(N)=O)c(Nc2ccc(N3CCC(N4CCN(C)CC4)CC3)c(OC)c2)nc1NC1CCOCC1 [gilteritinib]
IC50 (AP-1060 (ETV6-NTRK3)): 417 nM | IC50 (134 cancer cell lines; HEC-6, read-out: IC50 in cell proliferation assay, HEC-6 cell line (EGFR p.A289V)): 1430 nM | IC50 (134 cancer cell lines; Homo sapiens, 769-P, read-out: IC50 in cell proliferation assay, cell line 769-P): 1150 nM | IC50 (134 cancer cell lines; Homo sapiens, 786-0, read-out: IC50 in cell proliferation assay, cell line 786-O): 947 nM | IC50 (134 cancer cell lines; Homo sapiens, A 172, read-out: IC50 in cell proliferation assay, cell line A-172): 1630 nM | IC50 (134 cancer cell lines; Homo sapiens, A204, read-out: IC50 in cell proliferation assay, cell line A-204): 392 nM | IC50 (134 cancer cell lines; Homo sapiens, A498, read-out: IC50 in cell proliferation assay, cell line A-498): 552 nM | IC50 (134 cancer cell lines; Homo sapiens, A549, read-out: IC50 in cell proliferation assay, cell line A-549): 630 nM | IC50 (134 cancer cell lines; Homo sapiens, A704, read-out: IC50 in cell proliferation assay, cell line A-704): 962 nM | IC50 (134 cancer cell lines; Homo sapiens, A-375, read-out: IC50 in cell proliferation assay, cell line A-375 (BRAF p.V600E)): 400 nM | IC50 (134 cancer cell lines; Homo sapiens, A-427, read-out: IC50 in cell proliferation assay, cell line A-427): 248 nM | IC50 (134 cancer cell lines; Homo sapiens, ACHN, read-out: IC50 in cell proliferation assay, cell line ACHN): 294 nM | IC50 (134 cancer cell lines; Homo sapiens, AN3-CA, read-out: IC50 in cell proliferation assay, cell line AN3-CA (FGFR2 p.N549K)): 1220 nM | IC50 (134 cancer cell lines; Homo sapiens, ASPC1, read-out: IC50 in cell proliferation assay, cell line AsPC-1): 545 nM | IC50 (134 cancer cell lines; Homo sapiens, AU565, read-out: IC50 in cell proliferation assay, cell line AU565 (ERBB2 amplification)): 1310 nM | IC50 (134 cancer cell lines; Homo sapiens, BT-20, read-out: IC50 in cell proliferation assay, cell line BT-20): 4220 nM | IC50 (134 cancer cell lines; Homo sapiens, BT-474, read-out: IC50 in cell proliferation assay, cell line BT-474 (ERBB2 amplification)): 13900 nM | IC50 (134 cancer cell lines; Homo sapiens, BT-549, read-out: IC50 in cell proliferation assay, cell line BT-549): 469 nM | IC50 (134 cancer cell lines; Homo sapiens, BXPC-3, read-out: IC50 in cell proliferation assay, cell line BxPC-3): 409 nM | IC50 (134 cancer cell lines; Homo sapiens, C-33-A, read-out: IC50 in cell proliferation assay, cell line C-33 A): 344 nM | IC50 (134 cancer cell lines; Homo sapiens, CAL-27, read-out: IC50 in cell proliferation assay, cell line CAL-27): 366 nM | IC50 (134 cancer cell lines; Homo sapiens, CCF-STTG1, read-out: IC50 in cell proliferation assay, cell line CCF-STTG1): 4060 nM | IC50 (134 cancer cell lines; Homo sapiens, CCRF-CEM, read-out: IC50 in cell proliferation assay, cell line CCRF-CEM): 1690 nM | IC50 (134 cancer cell lines; Homo sapiens, COLO 205, read-out: IC50 in cell proliferation assay, cell line COLO 205 (BRAF p.V600E)): 1060 nM | IC50 (134 cancer cell lines; Homo sapiens, COLO-829, read-out: IC50 in cell proliferation assay, cell line COLO 829 (BRAF p.V600E)): 1220 nM | IC50 (134 cancer cell lines; Homo sapiens, DLD-1, read-out: IC50 in cell proliferation assay, cell line DLD-1): 746 nM | IC50 (134 cancer cell lines; Homo sapiens, DU-4475, read-out: IC50 in cell proliferation assay, cell line DU4475 (BRAF p.V600E)): 1440 nM | IC50 (134 cancer cell lines; Homo sapiens, Daoy, read-out: IC50 in cell proliferation assay, cell line Daoy): 3210 nM | IC50 (134 cancer cell lines; Homo sapiens, DoTc2-4510, read-out: IC50 in cell proliferation assay, cell line DoTc2 4510): 318 nM | IC50 (134 cancer cell lines; Homo sapiens, EOL1, read-out: IC50 in cell proliferation assay, cell line EoL-1 (FIP1L1-PDGFRA)): 33 nM | IC50 (134 cancer cell lines; Homo sapiens, FaDu, read-out: IC50 in cell proliferation assay, cell line FaDu): 459 nM | IC50 (134 cancer cell lines; Homo sapiens, G-361, read-out: IC50 in cell proliferation assay, cell line G-361 (BRAF p.V600E)): 328 nM | IC50 (134 cancer cell lines; Homo sapiens, HCC827, read-out: IC50 in cell proliferation assay, cell line HCC827 (EGFR exon19del)): 223 nM | IC50 (134 cancer cell lines; Homo sapiens, HCC4006, read-out: IC50 in cell proliferation assay, cell line HCC4006 (EGFR exon19del)): 540 nM | IC50 (134 cancer cell lines; Homo sapiens, HCT-15, read-out: IC50 in cell proliferation assay, cell line HCT 15): 829 nM | IC50 (134 cancer cell lines; Homo sapiens, HCT-116, read-out: IC50 in cell proliferation assay, cell line HCT 116): 418 nM | IC50 (134 cancer cell lines; Homo sapiens, HEC-1, read-out: IC50 in cell proliferation assay, HEC-1 cell line): 462 nM | IC50 (134 cancer cell lines; Homo sapiens, HEC-1B, read-out: IC50 in cell proliferation assay, HEC-1-B cell line (EGFR p.A864V)): 270 nM | IC50 (134 cancer cell lines; Homo sapiens, HL-60, read-out: IC50 in cell proliferation assay, HL-60 cell line): 438 nM | IC50 (134 cancer cell lines; Homo sapiens, HT, read-out: IC50 in cell proliferation assay, HT cell line): 3410 nM | IC50 (134 cancer cell lines; Homo sapiens, HT-1080, read-out: IC50 in cell proliferation assay, HT-1080 cell line): 202 nM | IC50 (134 cancer cell lines; Homo sapiens, Hs746T, read-out: IC50 in cell proliferation assay, Hs 746.T cell line (MET exon14skip + amplification)): 512 nM | IC50 (134 cancer cell lines; Homo sapiens, Hs-578T, read-out: IC50 in cell proliferation assay, Hs 578T cell line): 1190 nM | IC50 (134 cancer cell lines; Homo sapiens, HuTu80, read-out: IC50 in cell proliferation assay, HuTu 80 cell line): 509 nM | IC50 (134 cancer cell lines; Homo sapiens, J82, read-out: IC50 in cell proliferation assay, J82 cell line): 372 nM | IC50 (134 cancer cell lines; Homo sapiens, Jurkat E6.1, read-out: IC50 in cell proliferation assay, Jurkat E6.1 cell line): 749 nM | IC50 (134 cancer cell lines; Homo sapiens, K562, read-out: IC50 in cell proliferation assay, K-562 cell line): 1540 nM | IC50 (134 cancer cell lines; Homo sapiens, KATO III, read-out: IC50 in cell proliferation assay, KATO III cell line (FGFR2 amplification)): 718 nM | IC50 (134 cancer cell lines; Homo sapiens, KG-1, read-out: IC50 in cell proliferation assay, KG-1 cell line (FGFR1OP2-FGFR1)): 392 nM | IC50 (134 cancer cell lines; Homo sapiens, KLE, read-out: IC50 in cell proliferation assay, KLE cell line): 317 nM | IC50 (134 cancer cell lines; Homo sapiens, KMS-11, read-out: IC50 in cell proliferation assay, KMS-11 cell line (FGFR3 p.Y373C)): 912 nM | IC50 (134 cancer cell lines; Homo sapiens, KU812, read-out: IC50 in cell proliferation assay, Ku812 cell line): 1510 nM | IC50 (134 cancer cell lines; Homo sapiens, Kasumi 1, read-out: IC50 in cell proliferation assay, Kasumi-1 cell line (KIT p.N822K)): 219 nM | IC50 (134 cancer cell lines; Homo sapiens, LC-2-ad, read-out: IC50 in cell proliferation assay, LC-2/ad cell line (CCDC6-RET)): 158 nM | IC50 (134 cancer cell lines; Homo sapiens, LNCaP-Clone-FGC, read-out: IC50 in cell proliferation assay, LNCaP clone FGC cell line): 6820 nM | IC50 (134 cancer cell lines; Homo sapiens, LS174T, read-out: IC50 in cell proliferation assay, LS174T cell line): 652 nM | IC50 (134 cancer cell lines; Homo sapiens, LS-411N, read-out: IC50 in cell proliferation assay, LS411N cell line (BRAF p.V600E)): 1150 nM | IC50 (134 cancer cell lines; Homo sapiens, LoVo, read-out: IC50 in cell proliferation assay, LoVo cell line): 413 nM | IC50 (134 cancer cell lines; Homo sapiens, MCF7, read-out: IC50 in cell proliferation assay, MCF-7 cell line): 514 nM | IC50 (134 cancer cell lines; Homo sapiens, MDA-MB-231, read-out: IC50 in cell proliferation assay, MDA-MB-231 cell line): 1500 nM | IC50 (134 cancer cell lines; Homo sapiens, MDA-MB-453, read-out: IC50 in cell proliferation assay, MDA-MB-453 cell line): 8820 nM | IC50 (134 cancer cell lines; Homo sapiens, MDA-MB-468, read-out: IC50 in cell proliferation assay, MDA-MB-468 cell line): 4890 nM | IC50 (134 cancer cell lines; Homo sapiens, MG-63, read-out: IC50 in cell proliferation assay, MG-63 cell line): 377 nM | IC50 (134 cancer cell lines; Homo sapiens, MIA PaCa-2, read-out: IC50 in cell proliferation assay, MIA PaCa-2 cell line): 340 nM | IC50 (134 cancer cell lines; Homo sapiens, MKN-45, read-out: IC50 in cell proliferation assay, MKN45 cell line (MET amplification)): 1480 nM | IC50 (134 cancer cell lines; Homo sapiens, MOLM-13, read-out: IC50 in cell proliferation assay, MOLM-13 cell line (FLT3 ITD)): 4 nM | IC50 (134 cancer cell lines; Homo sapiens, MOLT-4, read-out: IC50 in cell proliferation assay, MOLT-4 cell line): 1000 nM
